Measurements: patent US20080194417A1, “Method for Measuring and Comparing the Activity of Biologically Active Compounds” (priority 2005, published 2008)

Columns and labels:
HepG2 cells [1] = experiment: Dose-dependent gene-transcriptional activity (Affymetrix GeneChip U133A) in HepG2 cells treated for 7 days; type: cell-based; conditions: for Difference in EC50 or IC50 values between RRR-α-T and all-rac-α-T / Number of genes dose-dependently regulated: HepG2; for EC50: HepG2, 104 induced genes, read-out: Transcriptional induction potency EC50, Mean ± SD; for EC50 / IC50: 7 days, 0-300 μM α-tocopheryl acetate in the media; for IC50: HepG2, 111 repressed genes, read-out: Transcriptional repression potency IC50, Mean ± SD; for Number of genes dose-dependently regulated: of the 14500 genes on the Affymetrix GeneChip U133A
Protocol: (§1) HepG2 cells (ATCC HB-8065) were cultured in 6 cm dishes in DMEM medium (GIBCO-Invitrogen, Switzerland) with 10% NU serum™ (Becton Dickinson, Switzerland) containing 1% Pen/Strep and undetectable amounts of vitamin E (detection limit 20 nM). Vitamin E compounds were applied as the acetate derivatives: RRR-α-tocopheryl acetate (Sigma and DSM Nutritional Products Ltd., Switzerland; 99-99.5 weight %, determined by gas chromatography) and all-rac-α-tocopheryl acetate (DSM Nutritional Products Ltd, Kaiseraugst, Switzerland; 98.0-99.5 weight %, determined by gas chromatography) were dissolved in 100% ethanol to prepare stock solutions. Treatment media were prepared by the addition of RRR-α-tocopheryl acetate (RRR-α-Tac) or all-rac-α-tocopheryl acetate (all-rac-α-Tac) to the basic medium at the following final concentrations: 0 (ethanol only, 1% final concentration), 10, 30, 80 and 300 μM. Treatment media were aliquoted and stored at −20° C. The vitamin E acetate treatment was performed for 7 days during the logarithmic growth phase of the cells. All treatment media were exchanged for fresh media every 24 hours. This treatment strategy has been chosen in the attempt to keep vitamin E acetate concentrations stable over time and to reach steady state intracellular vitamin E concentrations at 7 days of supplementation. All treatments were performed in quadruplicate dishes.
Cells were washed three times with PBS and lyzed with RTL buffer (Qiagen, Basel, Switzerland). Total RNA isolation was performed using RNeasy mini spin columns (Qiagen) and DNase digested on the columns (RNase-Free DNase Set, Qiagen) according to the manufacturer's description. cRNA preparation and Affymetrix GeneChip (U133A) hybridization were performed as described.
Data processing was carried out using the RACE-A analysis tool (Roche Bioinformatics, Basel, Switzerland) as described. Briefly, the arrays were normalized against the mean of the total sum of Average Difference (AvgDiff) values across all arrays used. Mean Average Difference values (MeanAvgDiff) were calculated as the means of one experiment performed in quadruplicate. Possible outliers were identified using the procedure of Nalimov with a 95% confidence interval. Subsequently, mean change factors (Chgf) for each individual gene were calculated among the different treatment groups and control using pair wise comparisons, and statistical significance was assessed by Student's t-test with prior testing for the normal distribution of the data. Applicant selected for those genes showing a dose-dependent regulation by vitamin E, i.e. maximal MeanAvgDiff>10 combined with a significant (p<0.05) differential Chgf between the vitamin E supplemented groups and the control group. The analysis of the experimental data obtained upon stimulation/treatment of the cells with RRR-α-Tac or all-rac-α-Tac was performed independently from each other.
EC50 and IC50 values, respectively, were determined by applying the standard four parameter model [y=a+(b−a)/(1+(x/c)̂d)] using the XL-Fit Software 3.0 (IDBS Inc. Emeryville, USA), where y is the normalized gene expression, x is the concentration of RRR-α-tocopherol or all-rac-α-tocopherol in the media and c corresponds to the EC50 and IC50 values, respectively. The potency-ratios were calculated as following: EC50RRR-α-T/EC50all-rac-α-T and IC50RRR-α-T/IC50all-rac-α-T.

HepG2 cells [2] = experiment: Cellular α-tocopherol concentrations in HepG2 cells (HPLC); type: cell-based; conditions: for Difference between the intracellular concentrations of RRR-α-T and all-rac-α-T: HepG2, 7 days; for Amount of free cellular vitamin E compared to control cells: HepG2, 7 days, 10, 30, 80 or 300 μM acetate in the media
Protocol: as §1
Adherent HepG2 cells were trypsinized, collected and washed three times with PBS containing 1% bovine serum albumin. Cells were saponified in a methanolic potassium hydroxide solution. The solution was diluted with 35% ethanol and extracted with hexane/toluene. α-Tocopheryl acetate and hydrolyzed α-tocopherols were quantified by isocratic HPLC analysis.

[3] = animal studies; cited from earlier work

SMILES | Difference in EC50 or IC50 values between RRR-α-T and all-rac-α-T (HepG2 cells [1]) | EC50 (HepG2 cells [1]) [µM] | IC50 (HepG2 cells [1]) [µM] | Number of genes dose-dependently regulated (HepG2 cells [1]) | Difference between the intracellular concentrations of RRR-α-T and all-rac-α-T (HepG2 cells [2]) | Amount of free cellular vitamin E compared to control cells (HepG2 cells [2]) | Potency ratio EC50RRR-α-T/EC50all-rac-α-T, Mean ± SD (HepG2 cells [1]; HepG2, 104 genes) | Potency ratio IC50RRR-α-T/IC50all-rac-α-T, Mean ± SD (HepG2 cells [1]; HepG2, 111 genes) | Overall biopotency factor (mean of all 215 potency ratios RRR-α-T to all-rac-α-T) (HepG2 cells [1]; HepG2, 215 genes) | Potency ratio Overall, Mean ± SD (HepG2 cells [1]; HepG2, 215 genes) | Biological potency relative to all-rac-α-T (times) [3]
Cc1c(C)c2c(c(C)c1O)CCC(C)(CCCC(C)CCCC(C)CCCC(C)C)O2 (racemic) [all-rac-α-T, all-rac-α-tocopherol] | no statistically significant differences | 14 ± 9.1 | 6 ± 4.5 | 215 | no significant difference | significantly increased |  |  |  |  | 
Cc1c(C)c2c(c(C)c1O)CC[C@@](C)(CCC[C@H](C)CCC[C@H](C)CCCC(C)C)O2 [RRR-α-T, (2R,4′R,8′R)-α-tocopherol] | no statistically significant differences | 18 ± 10.7 | 6.4 ± 6.8 | 215 | no significant difference | significantly increased | 0.9 ± 0.6 | 1.2 ± 0.7 | 1.05 | 1.05 ± 0.7 | 1.36
